Our source for the KD and binding values is publication PMC10214512 (2023).

The subject of assay [1] is Cy5 NRAS 5'UTR G4 (RNA, G4) UGUGGGAGGGGCGGGUCUGGGUGC
As to the kind of experiment: fluorescence quenching (Cy5). The following applies: 100 mM KCl, 10 mM MgCl2.

For assay [2] the test system is unchanged. As to the kind of experiment: MST thermophoresis. Particulars: 100 mM KCl, 10 mM MgCl2; binding only at millimolar concentrations, KD not established; label of G4 construct not stated for this assay.
The mark [3] stands for this setting: 20 mM HEPES pH 7.4, 25 °C, group value close to 200 nM.

The molecule `NCCOc1cc(C(=O)Nc2cc(OCCN)c3ccccc3n2)nc(C(=O)Nc2cc(OCCN)c3ccccc3n2)c1` displayed a KD in assay [1] (20 mM HEPES pH 7.4, 25 °C read after 30 min at 4 °C, 50 nM RNA) of 26 nM.

Regarding `NCCOc1cc(NC(=O)c2cc(OCc3cn(CCC(=O)O)nn3)cc(C(=O)Nc3cc(OCCN)c4ccccc4n3)n2)nc2ccccc12`, the dissociation constant KD in assay [1] (setting [3]) was found to be 191 nM.

The molecule `NCCOc1cc(NC(=O)c2cc(OCc3cn(CCOCCOCCOCCOCCOCCn4ccnc4)nn3)cc(C(=O)Nc3cc(OCCN)c4ccccc4n3)n2)nc2ccccc12` registered a KD in assay [1] (setting [3]) of 137 nM.

Turning to `NCCOc1cc(NC(=O)c2cc(OCc3cn(CCOCCOCCOCCn4ccnc4)nn3)cc(C(=O)Nc3cc(OCCN)c4ccccc4n3)n2)nc2ccccc12`, the KD in assay [1] (setting [3]) was 211 nM.

For the molecule `[N-]=[N+]=NCCOCCOCCOCCOCCOCCn1ccnc1`, the binding result in assay [2] was “weak”.

What is called KD is the equilibrium constant for the complex coming apart. A high value points to lower affinity.
